Source: ChEMBL document CHEMBL1130680, “Restricting the flexibility of crosslinked, interfacial peptide inhibitors of HIV-1 protease” (Bioorg Med Chem Lett, 1998)

Biological target: Human immunodeficiency virus type 1 protease (Human immunodeficiency virus 1, UniProt Q72874)
Assay: Inhibition of HIV-1 protease by fluorogenic substrate assay

Row | SMILES | IC50 [µM]
1 | CC[C@H](C)[C@H](NC(=O)[C@H](CCC(N)=O)NC(=O)[C@@H]1CCCN1C(=O)CCCCC/C=C/CCCCCC(=O)N[C@H](CO)C(=O)N[C@@H](C(=O)N[C@H](CC(C)C)C(=O)N[C@H](CC(N)=O)C(=O)N[C@H](Cc1ccccc1)C(=O)O)[C@H](C)O)C(=O)N[C@H](C(=O)N[C@@H](CC(C)C)C(=O)N[C@@H](Cc1c[nH]c2ccccc12)C(=O)O)[C@@H](C)O | 51.5
2 | CC[C@H](C)[C@H](NC(=O)[C@H](CCC(N)=O)NC(=O)[C@@H]1CCCN1C(=O)CCCCCC/C=C/CCCCCCC(=O)N[C@H](CO)C(=O)N[C@@H](C(=O)N[C@H](CC(C)C)C(=O)N[C@H](CC(N)=O)C(=O)N[C@H](Cc1ccccc1)C(=O)O)[C@H](C)O)C(=O)N[C@H](C(=O)N[C@@H](CC(C)C)C(=O)N[C@@H](Cc1c[nH]c2ccccc12)C(=O)O)[C@@H](C)O | 17.5
3 | CC[C@H](C)[C@H](NC(=O)[C@H](CCC(N)=O)NC(=O)[C@@H]1CCCN1C(=O)CCCCCCC/C=C/CCCCCCCC(=O)N[C@H](CO)C(=O)N[C@@H](C(=O)N[C@H](CC(C)C)C(=O)N[C@H](CC(N)=O)C(=O)N[C@H](Cc1ccccc1)C(=O)O)[C@H](C)O)C(=O)N[C@H](C(=O)N[C@@H](CC(C)C)C(=O)N[C@@H](Cc1c[nH]c2ccccc12)C(=O)O)[C@@H](C)O | 6.3
4 | CC[C@H](C)[C@H](NC(=O)[C@H](CCC(N)=O)NC(=O)[C@@H]1CCCN1C(=O)CCCCCC/C=C\CCCCCCC(=O)N[C@H](CO)C(=O)N[C@@H](C(=O)N[C@H](CC(C)C)C(=O)N[C@H](CC(N)=O)C(=O)N[C@H](Cc1ccccc1)C(=O)O)[C@H](C)O)C(=O)N[C@H](C(=O)N[C@@H](CC(C)C)C(=O)N[C@@H](Cc1c[nH]c2ccccc12)C(=O)O)[C@@H](C)O | 12.9
5 | CC[C@H](C)[C@H](NC(=O)[C@H](CCC(N)=O)NC(=O)[C@@H]1CCCN1C(=O)CCCCC/C=C\CCCCCC(=O)N[C@H](CO)C(=O)N[C@@H](C(=O)N[C@H](CC(C)C)C(=O)N[C@H](CC(N)=O)C(=O)N[C@H](Cc1ccccc1)C(=O)O)[C@H](C)O)C(=O)N[C@H](C(=O)N[C@@H](CC(C)C)C(=O)N[C@@H](Cc1c[nH]c2ccccc12)C(=O)O)[C@@H](C)O | 32.7
6 | CC[C@H](C)[C@H](NC(=O)[C@H](CCC(N)=O)NC(=O)[C@@H]1CCCN1C(=O)CCCCCCCCCCCCCCCCC(=O)N[C@H](CO)C(=O)N[C@@H](C(=O)N[C@H](CC(C)C)C(=O)N[C@H](CC(N)=O)C(=O)N[C@H](Cc1ccccc1)C(=O)O)[C@H](C)O)C(=O)N[C@H](C(=O)N[C@@H](CC(C)C)C(=O)N[C@@H](Cc1c[nH]c2ccccc12)C(=O)O)[C@@H](C)O | 4
7 | CC[C@H](C)[C@H](NC(=O)[C@H](CCC(N)=O)NC(=O)[C@@H]1CCCN1C(=O)CCCCCCCCCCCCCCC(=O)N[C@H](CO)C(=O)N[C@@H](C(=O)N[C@H](CC(C)C)C(=O)N[C@H](CC(N)=O)C(=O)N[C@H](Cc1ccccc1)C(=O)O)[C@H](C)O)C(=O)N[C@H](C(=O)N[C@@H](CC(C)C)C(=O)N[C@@H](Cc1c[nH]c2ccccc12)C(=O)O)[C@@H](C)O | 2
8 | CC[C@H](C)[C@H](NC(=O)[C@H](CCC(N)=O)NC(=O)[C@@H]1CCCN1C(=O)CCCCCCCCCCCCC(=O)N[C@H](CO)C(=O)N[C@@H](C(=O)N[C@H](CC(C)C)C(=O)N[C@H](CC(N)=O)C(=O)N[C@H](Cc1ccccc1)C(=O)O)[C@H](C)O)C(=O)N[C@H](C(=O)N[C@@H](CC(C)C)C(=O)N[C@@H](Cc1c[nH]c2ccccc12)C(=O)O)[C@@H](C)O | 13
9 | CC[C@H](C)[C@H](NC(=O)[C@H](CCC(N)=O)NC(=O)[C@@H]1CCCN1C(=O)CCCCCCCC#CCCCCCCCC(=O)N[C@H](CO)C(=O)N[C@@H](C(=O)N[C@H](CC(C)C)C(=O)N[C@H](CC(N)=O)C(=O)N[C@H](Cc1ccccc1)C(=O)O)[C@H](C)O)C(=O)N[C@H](C(=O)N[C@@H](CC(C)C)C(=O)N[C@@H](Cc1c[nH]c2ccccc12)C(=O)O)[C@@H](C)O | 7.2
10 | CC[C@H](C)[C@H](NC(=O)[C@H](CCC(N)=O)NC(=O)[C@@H]1CCCN1C(=O)CCCCCCC#CCCCCCCC(=O)N[C@H](CO)C(=O)N[C@@H](C(=O)N[C@H](CC(C)C)C(=O)N[C@H](CC(N)=O)C(=O)N[C@H](Cc1ccccc1)C(=O)O)[C@H](C)O)C(=O)N[C@H](C(=O)N[C@@H](CC(C)C)C(=O)N[C@@H](Cc1c[nH]c2ccccc12)C(=O)O)[C@@H](C)O | 4.5
11 | CC[C@H](C)[C@H](NC(=O)[C@H](CCC(N)=O)NC(=O)[C@@H]1CCCN1C(=O)CCCCCC#CCCCCCC(=O)N[C@H](CO)C(=O)N[C@@H](C(=O)N[C@H](CC(C)C)C(=O)N[C@H](CC(N)=O)C(=O)N[C@H](Cc1ccccc1)C(=O)O)[C@H](C)O)C(=O)N[C@H](C(=O)N[C@@H](CC(C)C)C(=O)N[C@@H](Cc1c[nH]c2ccccc12)C(=O)O)[C@@H](C)O | 21
12 | CC[C@H](C)[C@H](NC(=O)[C@H](CCC(N)=O)NC(=O)[C@@H]1CCCN1C(=O)CCCCCCC/C=C\CCCCCCCC(=O)N[C@H](CO)C(=O)N[C@@H](C(=O)N[C@H](CC(C)C)C(=O)N[C@H](CC(N)=O)C(=O)N[C@H](Cc1ccccc1)C(=O)O)[C@H](C)O)C(=O)N[C@H](C(=O)N[C@@H](CC(C)C)C(=O)N[C@@H](Cc1c[nH]c2ccccc12)C(=O)O)[C@@H](C)O | 4.4
